The text below walks through data of paper doi:10.1101/2021.06.18.448987v1 (biorxiv, 2021).

Like-named read-outs stand apart in the source and are kept apart here.

Data set [1] addresses T1, AnaGlgC (Nostoc sp. PCC 7120 = FACHB-418, UniProt P30521).
T1 sequence (P30521 1-429): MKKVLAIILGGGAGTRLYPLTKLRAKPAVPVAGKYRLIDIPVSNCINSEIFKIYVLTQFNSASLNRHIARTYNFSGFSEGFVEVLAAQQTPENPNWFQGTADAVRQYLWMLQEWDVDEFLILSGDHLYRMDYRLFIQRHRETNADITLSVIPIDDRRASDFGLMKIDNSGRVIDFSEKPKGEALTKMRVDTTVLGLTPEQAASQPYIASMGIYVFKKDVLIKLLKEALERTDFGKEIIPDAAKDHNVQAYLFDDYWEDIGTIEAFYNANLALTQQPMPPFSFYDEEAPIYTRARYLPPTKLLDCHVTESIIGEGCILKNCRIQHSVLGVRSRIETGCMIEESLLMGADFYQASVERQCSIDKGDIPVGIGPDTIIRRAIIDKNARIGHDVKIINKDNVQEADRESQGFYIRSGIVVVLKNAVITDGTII
As to the kind of experiment: biochemical.

In data set [2] the target is T1, AnaGlgC. As to the kind of experiment: Malachite Green Pi release with inorganic pyrophosphatase, ADP-Glc synthesis. The format is biochemical.
The test system of data set [3] is inMelGlgC. As to the kind of experiment: activity assay, ADP-Glc synthesis. It is filed as biochemical, Candidatus Melainabacteria bacterium MEL.A1. The conditions noted are these: read-out: I0.5; inhibitor; 10 mM MgCl2; MOPS pH 8.0; 37 °C.
Data set [4] concerns flMelGlgC. As to the kind of experiment: activity assay, ADP-Glc synthesis. The format is biochemical, Candidatus Melainabacteria bacterium GWF2_37_15. The conditions noted are these: read-out: I0.5; inhibitor; 10 mM MgCl2; MOPS pH 8.0; 37 °C.
Data set [5] relates to flMelGlgC. The following applies: read-out: S0.5, no effector, 10 mM MgCl2, MOPS pH 8.0, 37 °C.
Data set [6] has as its system inMelGlgC. The following applies: read-out: S0.5, no effector, 10 mM MgCl2, MOPS pH 8.0, 37 °C.
Data set [7] has as its target inMelGlgC. As to the kind of experiment: Malachite Green Pi release with inorganic pyrophosphatase, ADP-Glc synthesis. It is filed as biochemical, Candidatus Melainabacteria bacterium MEL.A1. The conditions noted are these: read-out: A0.5; allosteric activator; 10 mM MgCl2; MOPS pH 8.0; 37 °C.
Data set [8] deals with flMelGlgC. The data set is described as above. The format is biochemical, Candidatus Melainabacteria bacterium GWF2_37_15. The following applies: read-out: A0.5; allosteric activator; 10 mM MgCl2; MOPS pH 8.0; 37 °C.
Data set [9] has as its target T1, AnaGlgC. As to the kind of experiment: coupled spectrophotometric assay. It is filed as biochemical.
Substrate in data set [10]: Nc1ncnc2c1ncn2[C@@H]1O[C@H](COP(=O)(O)OP(=O)(O)OP(=O)(O)O)[C@@H](O)[C@H]1O
As to the kind of experiment: purified protein. The following applies: no effector, saturating Glc-1P, 10 mM MgCl2, MOPS pH 8.0, 37 °C.

Substrate in data set [11]: O=P(O)(O)O[C@H]1O[C@H](CO)[C@@H](O)[C@H](O)[C@H]1O
As to the kind of experiment: purified protein. The following applies: no effector, saturating ATP, 10 mM MgCl2, MOPS pH 8.0, 37 °C.

Setting [12] is: read-out: A0.5, allosteric activator, 10 mM MgCl2, MOPS pH 8.0, 37 °C.

Take `O=C(O)[C@H](O)COP(=O)(O)O` [3-PGA]: the EC50 on AnaGlgC [1] is 190 ± 90 µM; on AnaGlgC [2] it was 200 µM.

With `Nc1ncnc2c1ncn2[C@@H]1O[C@H](COP(=O)(O)OP(=O)(O)O)[C@@H](O)[C@H]1O` [ADP], the IC50 with inMelGlgC [3] came to 2300 ± 900 µM; in the data set on flMelGlgC [4], 1440 ± 80 µM.

Regarding `Nc1ncnc2c1ncn2[C@@H]1O[C@H](COP(=O)(O)OP(=O)(O)OP(=O)(O)O)[C@@H](O)[C@H]1O` [ATP], the values for the Km in the data set with flMelGlgC [5] (saturating Glc-1P) and in the data set with inMelGlgC [6] (saturating Glc-1P) were 340 ± 50 µM and 250 ± 10 µM, respectively.

For `O=P(O)(O)OC[C@H]1OC(O)(CO)[C@@H](O)[C@@H]1O` (stereo partly shown) [Fru-6P], the EC50 came to 440 ± 50 µM at inMelGlgC [7], 1700 ± 100 µM on flMelGlgC [8] and 900 ± 100 µM at AnaGlgC [2] (setting [12]).

`O=P(O)(O)O[C@H]1O[C@H](CO)[C@@H](O)[C@H](O)[C@H]1O` [Glc-1P]: the Km in the data set with flMelGlgC [5] (saturating ATP) was determined as 2100 ± 200 µM; in the data set with inMelGlgC [6] (saturating ATP), 320 ± 30 µM.

Take `O=P(O)(O)OC[C@H]1OC(O)[C@H](O)[C@@H](O)[C@@H]1O` (stereo partly shown) [Glc-6P]: the EC50 on inMelGlgC [7] is approximately 300 µM; at flMelGlgC [8] it was approximately 300 µM; on AnaGlgC [2] (setting [12]), 1450 ± 160 µM.

As for `O=P(O)(O)OC[C@H]1OC(O)[C@@H](O)[C@@H](O)[C@@H]1O` (stereo partly shown) [Man-6P], the EC50 on inMelGlgC [7] worked out at 520 ± 20 µM; at flMelGlgC [8] it was 450 ± 40 µM.

The molecule `O=P(O)(O)O` [Pi] yielded an IC50 against AnaGlgC [9] of 90 µM.

B1: AnaGlgC (Nostoc sp. PCC 7120 = FACHB-418) (protein)
chain: T1 sequence (P30521 1-429)
Turning to B1, the K0.5 in the data set “purified protein [10]” is listed as 0.40 ± 0.04 mM; in the data set “purified protein [11]”, 0.08 ± 0.02 mM.
